Measurements: patent US11214803B2, “Modulators of YAP1 expression” (Ionis Pharmaceuticals, Inc., priority 2019, dated 2022)
Strand notation (5' to 3'): a small letter for the sugar, then the base; units joined by * are phosphorothioate-linked, units joined directly phosphodiester-linked; [ ] holds rarer units or linkages, { } end groups; capitals alone tell only the bases. e = 2'-O-(2-methoxyethyl) (MOE); k = constrained ethyl (cEt); [5mC] = 5-methylcytosine; d = 2'-deoxy (DNA); m = 2'-O-methyl

The substances below were run on Yap1 mRNA (assay: Antisense inhibition of human Yap1 in SNU-449 cells by modified oligonucleotides, single dose (Example 5, RTS36584)). Details: Table 39; SNU-449 cells, 10,000 cells per well, free uptake, 2,000 nM oligonucleotide, approx. 48 hours; RTS36584; normalized to RIBOGREEN; Yap1 mRNA relative to untreated control.
Assay type: cell-based
How it was run: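 SNU-449 cells (10,000/well) took up 2,000 nM oligonucleotide by free uptake for about 48 h. Yap1 mRNA was measured by qRT-PCR with primer probe set RTS36584 and normalised to RIBOGREEN total RNA. Values are % of untreated control; asterisked oligos target the amplicon region.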

Substance | YAP1 (% UTC)
1198370 (kT*dG*dT*d[5mC]*dT*d[5mC]*dA*dT*dG*d[5mC]*d[5mC]*kT*eT*kA*eT*kA; antisense) [Compound 1198370] | 20 % UTC
1198421 (kT*dT*dA*dT*dA*dT*dG*dG*dT*dT*dT*kT*eG*kT*eG*kT; antisense) [Compound 1198421] | 36 % UTC
1198397 (k[5mC]*dA*d[5mC]*dT*dT*dT*dT*dA*d[5mC]*dA*dT*kT*eA*kG*eG*kA; antisense) [Compound 1198397] | 17 % UTC
1198385 (kA*dT*dA*dT*dT*dA*dG*dA*dG*dT*dA*kT*eG*kT*eG*kG; antisense) [Compound 1198385] | 30 % UTC
1095399 (antisense k[5mC]*dA*d[5mC]*dT*dG*dA*dG*dG*dT*dA*dT*kA*eA*k[5mC]*eT*kG) [Compound 1095399] | 46 % UTC
1198408 (kG*dT*dG*d[5mC]*dT*dT*dT*dG*dG*dA*dA*kG*eA*kT*e[5mC]*kT; antisense) [Compound 1198408] | 41 % UTC

Same assay, conditions: Table 40 (separate experiment); SNU-449 cells, 10,000 cells per well, free uptake, 2,000 nM oligonucleotide, approx. 48 hours; RTS36584; normalized to RIBOGREEN; Yap1 mRNA relative to untreated control

Substance | YAP1 (% UTC)
1198720 (kT*eG*kG*dA*dA*dA*dT*dT*dG*dT*d[5mC]*dT*e[5mC]*eA*kT*kG; antisense) [Compound 1198720] | 21 % UTC
1198719 (kG*eG*kA*dA*dA*dT*dT*dG*dT*d[5mC]*dT*d[5mC]*eA*eT*kG*k[5mC]; antisense) [Compound 1198719] | 14 % UTC

Same assay, conditions: Table 41; SNU-449 cells, 10,000 cells per well, free uptake, 2,000 nM modified oligonucleotide, approximately 48 hours; RTS36584; normalized to RIBOGREEN; Yap1 mRNA relative to untreated control cells

Substance | YAP1 (% UTC)
1198673 (antisense kG*kA*dT*dT*dT*dA*dG*dG*dA*dT*dG*d[5mC]*kA*eT*kG*eG) [Compound 1198673] | 10 % UTC
1198691 (antisense kG*kT*dA*dA*dT*dA*dT*dT*dG*d[5mC]*dA*dA*kT*e[5mC]*kT*eG) [Compound 1198691] | 38 % UTC
1198690 (antisense kT*kA*dA*dT*dA*dT*dT*dG*d[5mC]*dA*dA*dT*k[5mC]*eT*kG*eT) [Compound 1198690] | 64 % UTC

Same assay, conditions: Table 42 (separate experiment); SNU-449 cells, 10,000 cells per well, free uptake, 2,000 nM modified oligonucleotide, approximately 48 hours; RTS36584; normalized to RIBOGREEN; Yap1 mRNA relative to untreated control cells

Substance | YAP1 (% UTC)
1198223 (k[5mC]*kT*dT*dT*dT*dA*d[5mC]*dA*dT*dT*dA*eG*eG*eA*kA*k[5mC]) [Compound 1198223] | 94 % UTC
1198234 (kG*k[5mC]*dT*dT*dT*dG*dG*dA*dA*dG*dA*eT*e[5mC]*eT*kG*kA) [Compound 1198234] | 45 % UTC
1198212 (kT*kA*dT*dT*dA*dG*dA*dG*dT*dA*dT*eG*eT*eG*kG*k[5mC]; antisense) [Compound 1198212] | 17 % UTC

Same assay, conditions: Table 43 experiment; SNU-449 cells, 10,000 cells per well, free uptake, 2,000 nM, approximately 48 hours; RTS36584; Yap1 mRNA normalized to RIBOGREEN, relative to untreated control cells

Substance | YAP1 (% UTC)
1198484 (antisense kG*k[5mC]*dA*d[5mC]*dT*dT*dT*dT*dA*d[5mC]*dA*eT*kT*eA*kG*eG) [Compound 1198484] | 18 % UTC
1198244 (kA*kG*dA*dT*dT*dT*dA*dG*dG*dA*dT*eG*e[5mC]*eA*kT*kG; antisense) [Compound 1198244] | 24 % UTC

Same assay, conditions: Table 44 experiment; SNU-449 cells, 10,000 cells per well, free uptake, 2,000 nM, approximately 48 hours; RTS36584; Yap1 mRNA normalized to RIBOGREEN, relative to untreated control cells

Substance | YAP1 (% UTC)
1095623 (antisense k[5mC]*kA*d[5mC]*dT*dG*dA*dG*dG*dT*dA*dT*eA*kA*e[5mC]*kT*eG) [Compound 1095623] | 57 % UTC
1198526 (kA*kA*dG*dT*dG*dT*dA*dT*dG*dT*d[5mC]*eA*kG*eA*kA*eG; antisense) [Compound 1198526] | 2 % UTC
1198505 (kA*kT*dT*d[5mC]*dA*dG*dA*dT*dT*dT*dA*eG*kG*eA*kT*eG; antisense) [Compound 1198505] | 73 % UTC
1198501 (kG*kA*dT*dT*dT*dA*dG*dG*dA*dT*dG*e[5mC]*kA*eT*kG*eG; antisense) [Compound 1198501] | 5 % UTC
1198519 (kG*kT*dA*dA*dT*dA*dT*dT*dG*d[5mC]*dA*eA*kT*e[5mC]*kT*eG; antisense) [Compound 1198519] | 20 % UTC

Same assay, conditions: Table 45; Yap1 mRNA as percent of untreated control, SNU-449 cells, single dose

Substance | YAP1 (% UTC)
1198965 (k[5mC]*kT*dT*dT*dA*dA*dA*dG*dT*dG*dT*kA*dT*kG*dT*k[5mC]; antisense) [Compound 1198965] | 95 % UTC
1198896 (kT*kG*dG*dA*dA*dA*dT*dT*dG*dT*d[5mC]*kT*d[5mC]*kA*dT*kG; antisense) [Compound 1198896] | 59 % UTC
1198915 (k[5mC]*kT*dT*dT*dT*dA*d[5mC]*dA*dT*dT*dA*kG*dG*kA*dA*k[5mC]; antisense) [Compound 1198915] | 37 % UTC

Same assay, conditions: Table 46; Yap1 mRNA as percent of untreated control, SNU-449 cells, single dose

Substance | YAP1 (% UT)
1198886 (kA*k[5mC]*dT*dA*dA*dG*dT*dA*dA*dG*dG*kT*eT*kT*e[5mC]*k[5mC]; antisense) [Compound 1198886] | 45 % UT
1198842 (kG*kT*dG*d[5mC]*dT*dT*dT*dG*dG*dA*dA*kG*eA*kT*e[5mC]*kT; antisense) [Compound 1198842] | 37 % UT
1198851 (CAGATTTAGGATGCAT; antisense; chemistry not fully specified) [Compound 1198851] | 82 % UT
1198865 (kA*kA*dT*dA*dT*dT*dG*d[5mC]*dA*dA*dT*k[5mC]*eT*kG*eT*k[5mC]; antisense) [Compound 1198865] | 38 % UT
1198819 (kA*kT*dA*dT*dT*dA*dG*dA*dG*dT*dA*kT*eG*kT*eG*kG; antisense) [Compound 1198819] | 44 % UT
1198840 (kG*k[5mC]*dT*dT*dT*dG*dG*dA*dA*dG*dA*kT*e[5mC]*kT*eG*kA; antisense) [Compound 1198840] | 26 % UT

Same assay, conditions: Table 48; Yap1 mRNA level relative to untreated control; modified oligonucleotides targeting SEQ ID NO.: 1 and 2

Substance | YAP1 (% UT)
1198332 (kT*k[5mC]*kA*dG*dA*dT*dT*dT*dA*dG*dG*dA*kT*eG*k[5mC]*eA; antisense) [Compound 1198332] | 58 % UT
1198310 (kA*k[5mC]*kT*dT*dT*dT*dA*d[5mC]*dA*dT*dT*dA*kG*eG*kA*eA; antisense) [Compound 1198310] | 28 % UT

Same assay, conditions: Table 49; Yap1 mRNA level relative to untreated control; modified oligonucleotides targeting SEQ ID NO.: 1 and 2

Substance | YAP1 (% UT)
1198559 (antisense kT*k[5mC]*kT*dA*dT*dA*dT*dT*dA*dG*dA*dG*kT*kA*kT*eG) [Compound 1198559] | 55 % UT
1198353 (kA*kG*kT*dG*dT*dA*dT*dG*dT*d[5mC]*dA*dG*kA*eA*kG*eA; antisense) [Compound 1198353] | 8 % UT
1198553 (antisense kT*kA*kG*dA*dG*dT*dA*dT*dG*dT*dG*dG*k[5mC]*kA*kA*eT) [Compound 1198553] | 13 % UT

Same assay, conditions: Table 51; Yap1 mRNA remaining as percent of untreated control (UT), SNU-449 cells, single dose

Substance | YAP1 (% UT)
1197241 (antisense kA*k[5mC]*kT*dG*mA*dG*dG*dT*dA*dT*dA*dA*d[5mC]*kT*kG*kG) [Compound 1197241] | 19 % UT
1200799 (kA*kT*kA*dT*dT*mA*dG*dA*dG*dT*dA*dT*dG*kT*kG*kG; antisense) [Compound 1200799] | 27 % UT

Same assay, conditions: Table 52; Yap1 mRNA, modified oligonucleotides targeting SEQ ID NO: 1 and 2

Substance | YAP1 (% UT)
1200854 (kT*kA*kT*dG*dT*mA*dA*dT*dA*dT*dT*dG*d[5mC]*kA*kA*kT; antisense) [Compound 1200854] | 91 % UT
1200819 (kT*kT*kA*dA*dG*mC*dA*d[5mC]*dT*dT*dT*dT*dA*k[5mC]*kA*kT; antisense) [Compound 1200819] | 101 % UT

Same assay, conditions: Yap1 mRNA, percent of untreated control; modified oligonucleotides targeting SEQ ID NO: 1 and 2; Table 47

Substance | YAP1 (% UT)
1198872 (kT*kG*dT*dA*dT*dG*dT*d[5mC]*dA*dG*dA*kA*eG*kA*eG*kT; antisense) [Compound 1198872] | 8 % UT
1009326 (kT*kA*kT*dT*dA*dG*dA*dG*dT*dA*dT*dG*dT*kG*kG*k[5mC]; antisense) [Compound 1009326] | 10 % UT
1197196 (antisense k[5mC]*kA*kG*dA*dT*dT*dT*dA*dG*dG*dA*dT*dG*k[5mC]*kA*kT) [Compound 1197196] | 27 % UT
